# Reference: patent US20130096170A1 (priority 2011, published 2013)
# Where two headings read alike, the source gives them in different places.
# Tests used:
# [1] = cited from earlier work
# [2] = test system: pediatric subjects 2 to <17 years
# [3] = Dose Level 2, LD 0.50/CD 0.4 μg/kg/hr, full evaluable population
# [4] = Dose Level 3, LD 1.00/CD 0.7 μg/kg/hr, full evaluable population
# [5] = Dose Level 4, LD 1.00/CD 2.00 μg/kg/hr, full evaluable population
# [6] = Table 30 key summary (mean), Dose Level 1, LD 0.25/CD 0.2 μg/kg/hr, full evaluable population
# [7] = Table 30 key summary (mean), Dose Level 2, LD 0.50/CD 0.4 μg/kg/hr, full evaluable population
# [8] = Table 30 key summary (mean), Dose Level 3, LD 1.00/CD 0.7 μg/kg/hr, full evaluable population
# [9] = Table 30 key summary (mean), Dose Level 4, LD 1.00/CD 2.00 μg/kg/hr, full evaluable population
# [10] = Group I, Dose Level 1, LD 0.25/CD 0.2 μg/kg/hr, N = 8, safety population
# [11] = Group I, Dose Level 2, LD 0.50/CD 0.4 μg/kg/hr, N = 6, safety population
# [12] = Group I, Dose Level 3, LD 1.00/CD 0.7 μg/kg/hr, N = 6, safety population
# [13] = Group I, Dose Level 4, LD 1.00/CD 2.00 μg/kg/hr, N = 6, safety population
# [14] = Group II, Dose Level 1, LD 0.25/CD 0.2 μg/kg/hr, N = 8, safety population
# [15] = Group II, Dose Level 2, LD 0.50/CD 0.4 μg/kg/hr, N = 8, safety population
# [16] = Group II, Dose Level 3, LD 1.00/CD 0.7 μg/kg/hr, N = 9, safety population
# [17] = Group II, Dose Level 4, LD 1.00/CD 2.00 μg/kg/hr, N = 8, safety population
smiles,measurement,setting,value
Cc1cccc([C@H](C)c2cnc[nH]2)c1C [dexmedetomidine],Css Mean,[3],539.848 µg/mL
same,Css Median,[3],513.902 µg/mL
same,λz Mean,[3],0.408 h⁻¹
same,λz Median,[3],0.411 h⁻¹
same,Css Mean,[4],1347.284 µg/mL
same,Css Median,[4],947.907 µg/mL
same,λz Mean,[4],0.369 h⁻¹
same,λz Median,[4],0.386 h⁻¹
same,Css Mean,[5],2827.144 µg/mL
same,Css Median,[5],2665.409 µg/mL
same,λz Mean,[5],0.360 h⁻¹
same,λz Median,[5],0.326 h⁻¹
same,Css,[6],0.402 ng/mL
same,λz,[6],0.5 h⁻¹
same,Css,[7],0.5398 ng/mL
same,λz,[7],0.4 h⁻¹
same,Css,[8],1.3473 ng/mL
same,λz,[8],0.4 h⁻¹
same,Css,[9],2.8271 ng/mL
same,λz,[9],0.4 h⁻¹
same,Css,"human, in vivo",5.74355e+09 ng/mL
same,dose proportionality of AUC and Cmax,"human, in vivo",dose proportionality and a linear relationship
same,pKa,[1],7
same,solubility in water,[1],freely soluble in water
same,pH of the isotonic solution,[1]; study drug as supplied,4.5
same,Drug-related TEAE: Bradycardia,[2]; [10],0 n (%)
same,Drug-related TEAE: Hypertension,[2]; [10],0 n (%)
same,Drug-related TEAE: Hypotension,[2]; [10],0 n (%)
same,Drug-related TEAE: Sedation,[2]; [10],0 n (%)
same,Number of Drug-related TEAE,[2]; [10],0
same,Subjects with at least 1 Drug-Related TEAE,[2]; [10],0 n (%)
same,Drug-related TEAE: Bradycardia,[2]; [11],0 n (%)
same,Drug-related TEAE: Hypertension,[2]; [11],0 n (%)
same,Drug-related TEAE: Hypotension,[2]; [11],0 n (%)
same,Drug-related TEAE: Sedation,[2]; [11],0 n (%)
same,Number of Drug-related TEAE,[2]; [11],0
same,Subjects with at least 1 Drug-Related TEAE,[2]; [11],0 n (%)
same,Drug-related TEAE: Bradycardia,[2]; [12],1 (16.7) n (%)
same,Drug-related TEAE: Hypertension,[2]; [12],1 (16.7) n (%)
same,Drug-related TEAE: Hypotension,[2]; [12],0 n (%)
same,Drug-related TEAE: Sedation,[2]; [12],0 n (%)
same,Number of Drug-related TEAE,[2]; [12],2
same,Subjects with at least 1 Drug-Related TEAE,[2]; [12],1 (16.7) n (%)
same,Drug-related TEAE: Bradycardia,[2]; [13],1 (16.7) n (%)
same,Drug-related TEAE: Hypertension,[2]; [13],0 n (%)
same,Drug-related TEAE: Hypotension,[2]; [13],1 (16.7) n (%)
same,Drug-related TEAE: Sedation,[2]; [13],2 (33.3) n (%)
same,Number of Drug-related TEAE,[2]; [13],4
same,Subjects with at least 1 Drug-Related TEAE,[2]; [13],4 (66.7) n (%)
same,Drug-related TEAE: Bradycardia,[2]; [14],0 n (%)
same,Drug-related TEAE: Chills,[2]; [14],0 n (%)
same,Drug-related TEAE: Hypertension,[2]; [14],0 n (%)
same,Drug-related TEAE: Sedation,[2]; [14],0 n (%)
same,Number of Drug-related TEAE,[2]; [14],0
same,Subjects with at least 1 Drug-Related TEAE,[2]; [14],0 n (%)
same,Drug-related TEAE: Bradycardia,[2]; [15],0 n (%)
same,Drug-related TEAE: Chills,[2]; [15],0 n (%)
same,Drug-related TEAE: Hypertension,[2]; [15],0 n (%)
same,Drug-related TEAE: Sedation,[2]; [15],0 n (%)
same,Number of Drug-related TEAE,[2]; [15],0
same,Subjects with at least 1 Drug-Related TEAE,[2]; [15],0 n (%)
same,Drug-related TEAE: Bradycardia,[2]; [16],1 (11.1) n (%)
same,Drug-related TEAE: Chills,[2]; [16],1 (11.1) n (%)
same,Drug-related TEAE: Hypertension,[2]; [16],1 (11.1) n (%)
same,Drug-related TEAE: Sedation,[2]; [16],0 n (%)
same,Number of Drug-related TEAE,[2]; [16],3
same,Subjects with at least 1 Drug-Related TEAE,[2]; [16],2 (22.2) n (%)
same,Drug-related TEAE: Bradycardia,[2]; [17],0 n (%)
same,Drug-related TEAE: Chills,[2]; [17],0 n (%)
same,Drug-related TEAE: Hypertension,[2]; [17],3 (37.5) n (%)
same,Drug-related TEAE: Sedation,[2]; [17],1 (12.5) n (%)
same,Number of Drug-related TEAE,[2]; [17],4
same,Subjects with at least 1 Drug-Related TEAE,[2]; [17],4 (50.0) n (%)
same,treatment-related TEAE: chills,"[2]; human, in vivo",1 subjects
same,treatment-related TEAE: hypotension,"[2]; human, in vivo",1 subjects
same,deaths,[2]; safety population,No deaths
